These results are taken from PMC7417721, “Cell cycle exit during bortezomib‐induced osteogenic differentiation of mesenchymal stem cells was mediated by Xbp1s‐upregulated p21^Cip1 and p27^Kip1” (Journal of Cellular and Molecular Medicine, 2020).

pIC50: −log10 of the molar value. Like-named read-outs stand apart in the source and are kept apart here.

Data set [1] deals with p21Cip1 and p27Kip1 mRNA in mBM-MSCs. Description: Real-time PCR of p21Cip1 and p27Kip1 mRNA. The following applies: 24 h. It is filed as cell-based, mouse. The protocol:
Total RNA from cells was extracted using Ultrapure RNA Kit (DNase I) (CWBIO, Beijing, China) according to the manufacturer's instructions. Reverse transcription was performed using HiFiScript cDNA Synthesis Kit (CWBIO, Beijing, China). Real‐time PCR was performed using UltraSYBR Mixture (CWBIO, Beijing, China) and a CFX96™ Real‐Time PCR Detection System (Bio‐Rad, Hercules, CA, USA). The thermal cycling conditions included 2 min at 50°C and 10 min at 95°C, followed by 40 cycles of 95°C for 15 s, 58°C for 30 s and 72°C for 30 s. Mouse β‐actin was used as internal control. The relative expression levels of each gene were analysed using the 2^‐ΔΔCt method. The primers were designed using Primer3Plus platform (http://www.bioinformatics.nl/primer3plus) and synthesized by Sangon Biotech (Shanghai, China).
In general terms: Real-time PCR tracks product formation cycle by cycle.

Data set [2] concerns cyclin D3, cyclin E1, Cdk2, Cdk4, p21Cip1, p27Kip1 in mBM-MSCs. Description: Western blotting of cell cycle regulatory components (cyclins, CDKs, CKIs). Conditions: 24 h. It is filed as cell-based, mouse. Here is the method:
(§1) Western blotting was performed as described previously. ^16 Briefly, mBM‐MSCs were cultured with indicated doses of bortezomib for 24 h; then, the cells were lysed in radioimmunoprecipitation assay (RIPA) buffer. Equal amount of proteins was loaded on 10% sodium dodecyl sulphate‐polyacrylamide gel electrophoresis (SDS‐PAGE) gel and was then electrotransferred to polyvinylidene difluoride (PVDF) membrane immunoblotted for specific primary antibodies. Immunoblots were visualized using horseradish peroxidase (HRP)‐conjugated secondary antibodies (Jackson ImmunoResearch Laboratories, West Grove, PA, USA) and the enhanced chemiluminescence (ECL) Western Blot Detection Kit (Phygene Life Sciences, Fuzhou, Fujian, China). The chemiluminescent blots were captured by using digital imaging with a charge‐coupled device (CCD) camera system MiniChemi 610 and analysed by Lane 1D™ analysis software (Sage, Beijing, China).

For data set [3], the system named is Grp78, Chop, Xbp1s, Atf4 in mBM-MSCs. Description: Western blotting of ER stress signalling proteins. It is filed as cell-based, mouse. The following applies: 24 h. The protocol: as §1
For orientation: A western blot detects proteins with antibodies after separation by electrophoresis.

Data set [4] concerns mBM-MSCs. Description: Cell cycle analysis (propidium iodide, flow cytometry). It is filed as cell-based, mouse. The following applies: 24 h; for proportion of S phase cells: mean ± SEM of three experiments (control 32.017 ± 1.991); for percentage of cells in G0/G1 phase: mean ± SEM of three experiments (control 55.14 ± 5.132). The protocol:
mBM‐MSCs (5 × 10^5 cells) treated with various concentrations of bortezomib for 24 h were harvested, washed with PBS solution, fixed in 70% ethanol and kept at −20°C overnight. Cells were then resuspended in a buffer containing […] propidium iodide and […] RNase A (Solarbio Life Sciences, Beijing, China). Samples were analysed using a BD FACSCanto II flow cytometer. Data were acquired and analysed using CellQuest and ModFit software (BD Biosciences, San Jose, CA, USA).

Data set [5] has as its system Runx2, Sp7, Col1A1, ALP, OCN/BGLAP in mBM-MSCs. Put plainly: Western blotting of osteogenesis-related proteins. The class given is cell-based, mouse. Conditions: indicated concentrations, 24 h, Figure S1. Here is the method: as §1
Data set [6] concerns mBM-MSCs. Put plainly: MTT cell viability assay. Conditions: for pIC50: Mus musculus, read-out: IC50, cell viability. The protocol:
mBM‐MSCs were seeded at a cell density of 5 × 10^3 cells/mL in 96‐well plates and allowed to attach to the wells for 24 h. Cells were then treated with various concentrations of bortezomib. After 24‐h and 48‐h treatment, 10 µL of 3‐(4,5‐dimethylthiazol‐2‐yl)‐2,5‐diphenyltetrazolium bromide (MTT) solution (Sigma‐Aldrich, Burlington, MA, USA) was added to each well to a final concentration of 0.5 mg/mL. The supernatant medium was then discarded, and a volume of 150 µL of DMSO was added to each well to lyse the crystal. The plates were agitated for 15 min to ensure the dissolution of any remaining crystals. The absorbance in the relevant wells was measured at 490 nm using an Ultra Microplate Reader (ELx800, BioTek Instruments, Winooski, VT, USA). Each experiment was reproduced three times in duplicate.
On the technique in general: Tetrazolium dyes change colour on reduction, which living cells bring about.

Data set [7] concerns mBM-MSCs. Put plainly: EdU cell proliferation assay (flow cytometry). It is filed as cell-based, mouse. The following applies: various concentrations, 24 h. The protocol:
5‐ethynyl‐2′‐deoxyuridine (EdU) incorporation assay was performed to measure cell proliferation with the kit (Molecular Probes, Eugene, OR, USA) according to the manufacturer's instructions. Briefly, mBM‐MSCs were seeded and grown at a density of 70%‐80% confluence in 35‐mm culture dishes and then treated with various concentrations of bortezomib for 24 h. EdU was added to the culture media 4 h before the harvest. The cells were detected by flow cytometry using a BD FACSCanto II instrument. Data were analysed using FlowJo 7.6.2 software (Tree Star, Ashland, OR, USA).

In data set [8] the test system is mBM-MSCs. Put plainly: Alizarin Red S staining of mineralized matrix (osteogenic differentiation). The class given is cell-based, mouse. Conditions: 8 days. Here is the method:
mBM‐MSCs were plated in 35‐mm‐diameter culture dishes and grown in DMEM containing 10% FBS, 100 U/mL penicillin, 100 μg/mL streptomycin, and 2 mM L‐glutamine at 37°C in a humidified incubator with 5% CO2 in the air. When cell density reached 70%‐80% confluence, the cells were subsequently cultured in the presence or absence of bortezomib at the indicated concentrations for 8 days. The culture medium was changed every 3 days. mBM‐MSCs cultured in an osteogenic induction media containing […] ascorbic acid and 10 mM β‐glycerophosphate sodium were used as a positive control. For Alizarin Red S (ARS) (Solarbio Life Sciences, Beijing, China) staining, mBM‐MSCs were fixed with 4% formaldehyde for 10 min, then rinsed twice with phosphatebuffered saline (PBS) at room temperature. The cells were then stained with 1% ARS (pH 4.2) for up to 15 min at room temperature. Images of mBM‐MSCs stained with ARS were captured and stored digitally.

The mark [9] stands for this setting: MKC3946 10 nM with bortezomib 2.5 nM.

`CN1CCN(C(=O)c2ccc(-c3ccc4c(C=O)c(O)ccc4c3)s2)CC1` [MKC3946]: in data set [1] (setting [9]), the “mRNA level of p21Cip1” value was “aborted up‐regulation” and the “mRNA level of p27Kip1” value is on record as “aborted up‐regulation”. Also, in data set [2] (in the presence of bortezomib), the “expression of p21Cip1 (protein)” value is “decrease” and the “expression of p27Kip1 (protein)” value is listed as “decrease”. Further, the “bortezomib-induced Xbp1s (protein)” value in data set [3] (in the presence of bortezomib) is “aborted”. Moreover, the cell cycle distribution entry with mBM-MSCs [4] (10 nM MKC3946 alone, Figure S2) is listed as “no effects”. For the same molecule, the “percentage of S phase” value with mBM-MSCs [4] (combination of 10 nM MKC3946 with 2.5 nM bortezomib, Figure S2) was “significantly decreased”.

Regarding `CC(C)C[C@H](NC(=O)[C@H](Cc1ccccc1)NC(=O)c1cnccn1)B(O)O` [bortezomib, Bortezomib], in data set [1] (2.5 nM), the “mRNA level of p21Cip1” value was “significantly up‐regulated” and the “mRNA level of p27Kip1” value is reported as “significantly up‐regulated”. In data set [2] (indicated concentrations), the “expression of Cdk2 (protein)” value is on record as “markedly decreased”, the “expression of Cdk4 (protein)” value is “markedly decreased”, the “expression of cyclin D3 (protein)” value is recorded as “no effects” and the “expression of cyclin E1 (protein)” value is reported as “no effects”. In data set [2] (indicated concentrations), the “expression of p21Cip1 (protein)” value is “significantly increased” and the “expression of p27Kip1 (protein)” value is listed as “significantly increased”. Further, in data set [5], the “expression of Col1A1” value is “induce the expression”, the “expression of Runx2” value is “induce the expression”, the “expression of Sp7” value is listed as “induce the expression” and the “expression of alkaline phosphatase (ALP)” value is recorded as “induce the expression”. In data set [5], the “expression of osteocalcin (OCN/BGLAP)” value is listed as “induce the expression”. Further, in the data set with mBM-MSCs [6] (24 h), the pIC50 (usually the negative decadic logarithm of the IC50, by convention in mol/L) is 8.05. In the data set with mBM-MSCs [6] (48 h), the pIC50 is 8.18. For the same molecule, in the data set with mBM-MSCs [6] (mBM-MSCs, MTT, 24 h and 48 h), the “doses resulting in cytotoxicity to mBM-MSCs” value was “higher than 5 nM”. Besides, the “numbers of EdU-positive mBM-MSCs” value in the data set with mBM-MSCs [7] was “dose‐dependently decreased”. Further, in data set [3] (indicated concentrations), the “expression of Atf4” value is on record as “activated”, the “expression of ER stress marker Chop” value is recorded as “increased expression levels”, the “expression of ER stress marker Grp78” value is listed as “increased expression levels” and the “expression of Xbp1s” value is on record as “activated”. The “calcium deposition (ARS staining) versus control cells” value in the data set on mBM-MSCs [8] (2.5 nM) is “much higher amounts of calcium phosphate crystals than the control cells”. In addition, in the data set with mBM-MSCs [8] (5 nM), the “calcium deposition (ARS staining) versus control cells” value is recorded as “much higher amounts of calcium phosphate crystals than the control cells”. In addition, the “proportion of cells in the G2/M phase” value in the data set with mBM-MSCs [4] (2.5 nM and 5 nM) is “no significant change”. Moreover, in the data set with mBM-MSCs [4] (2.5 nM), the “proportion of S phase cells” value is recorded as 21.807 ± 2.844% and the “percentage of cells in G0/G1 phase” value is reported as 67.36 ± 6.067%. In the data set with mBM-MSCs [4] (5 nM), the “proportion of S phase cells” value was 19.940 ± 4.321% and the “percentage of cells in G0/G1 phase” value stood at 68.117 ± 2.743%.

For `Cn1cc(-c2ccc3c(c2)CCN3C(=O)Cc2cccc(C(F)(F)F)c2)c2c(N)ncnc21` [GSK2606414], in data set [2] (in the presence of bortezomib), the “expression of p21Cip1 (protein)” value is “no significant effects” and the “expression of p27Kip1 (protein)” value was “no significant effects”. For the same molecule, in data set [3] (in the presence of bortezomib), the “Atf4 (protein)” value is “marked decrease”.
